Experimental data as given in BigSolDB 2.1.

O=C1NS(=O)(=O)c2ccccc21
solubility (mole fraction)
Conditions	293.15 K	298.15 K	303.15 K	308.15 K	313.15 K	318.15 K	323.15 K
in acetonitrile	0.00739	0.00809	0.00936	0.0105	0.012	0.0143	0.0157
in ethanol	0.00821	0.00924	0.0108	0.0121	0.0144	0.0169	0.0196
in isopropanol	0.00792	0.00942	0.011	0.013	0.016	0.0193	0.0231
in methanol	0.00927	0.0102	0.012	0.0136	0.0161	0.0187	0.0218
